Tests used:
Mannheimia haemolytica = assay: minimum inhibitory concentration (MIC)
Experimental: (§1)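 Broth microdilution MIC (Sensititre BOPO7F bovine plate, CLSI methods) of 19 antimicrobials against field isolates of P. multocida, M. haemolytica, H. somni (deep nasopharyngeal swabs) and E. coli, Enterococcus spp. (rectal swabs) from weaned dairy heifers. Incubation 16-24 h at 35 C. MIC is the lowest concentration preventing visible growth. Values with <= or > lie at the tested range limits. Trimethoprim-sulfamethoxazole is given as the trimethoprim component of a 1:19 mixture.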

Enterococcus spp. = assay: minimum inhibitory concentration (MIC)
Experimental: as §1

[1] = isolate (source animal id): 122
[2] = isolate (source animal id): 123
[3] = isolate (source animal id): 133
[4] = isolate (source animal id): 171
[5] = isolate (source animal id): 183
[6] = isolate (source animal id): 187
[7] = isolate (source animal id): 190
[8] = isolate (source animal id): 211
[9] = isolate (source animal id): 223
[10] = isolate (source animal id): 241
[11] = isolate (source animal id): 252
[12] = isolate (source animal id): 282
[13] = isolate (source animal id): 298
[14] = isolate (source animal id): 320
[15] = isolate (source animal id): 333

Measured: minimum inhibitory concentration

CC[C@H]1OC(=O)C[C@@H](O)[C@H](C)[C@@H](O[C@@H]2O[C@H](C)[C@@H](O)[C@H](N(C)C)[C@H]2O)[C@@H](CCN2CCCCC2)C[C@@H](C)C(=O)/C=C/C(C)=C/[C@@H]1CN1CCCCC1 [Tildipirosin]
4 µg/mL: Mannheimia haemolytica; isolate (source animal id): 28 | Mannheimia haemolytica; isolate (source animal id): 31 | Mannheimia haemolytica; isolate (source animal id): 145 | Mannheimia haemolytica; isolate (source animal id): 202
16 µg/mL: Mannheimia haemolytica; isolate (source animal id): 25 | Mannheimia haemolytica; isolate (source animal id): 27 | Mannheimia haemolytica; isolate (source animal id): 36 | Mannheimia haemolytica; isolate (source animal id): 37 | Mannheimia haemolytica; isolate (source animal id): 46 | Mannheimia haemolytica; isolate (source animal id): 49 | Mannheimia haemolytica; isolate (source animal id): 50 | Mannheimia haemolytica; isolate (source animal id): 100 | Mannheimia haemolytica; isolate (source animal id): 103 | Mannheimia haemolytica; isolate (source animal id): 107 | Mannheimia haemolytica; isolate (source animal id): 108 | Mannheimia haemolytica; isolate (source animal id): 121 | Mannheimia haemolytica; isolate (source animal id): 152 | Mannheimia haemolytica; isolate (source animal id): 237 | Mannheimia haemolytica; [10] | Mannheimia haemolytica; [11] | Mannheimia haemolytica; isolate (source animal id): 253 | Mannheimia haemolytica; isolate (source animal id): 262 | Mannheimia haemolytica; isolate (source animal id): 293 | Mannheimia haemolytica; isolate (source animal id): 324 | Mannheimia haemolytica; isolate (source animal id): 335 | Mannheimia haemolytica; isolate (source animal id): 338 | Enterococcus spp.; isolate (source animal id): 44 | Enterococcus spp.; isolate (source animal id): 79 | Enterococcus spp.; isolate (source animal id): 92 | Enterococcus spp.; [2] | Enterococcus spp.; isolate (source animal id): 169 | Enterococcus spp.; [4] | Enterococcus spp.; isolate (source animal id): 181 | Enterococcus spp.; isolate (source animal id): 182 | Enterococcus spp.; [6] | Enterococcus spp.; [7] | Enterococcus spp.; isolate (source animal id): 194 | Enterococcus spp.; isolate (source animal id): 195 | Enterococcus spp.; isolate (source animal id): 197 | Enterococcus spp.; [8] | Enterococcus spp.; isolate (source animal id): 214 | Enterococcus spp.; isolate (source animal id): 222 | Enterococcus spp.; isolate (source animal id): 244 | Enterococcus spp.; isolate (source animal id): 246 | Enterococcus spp.; isolate (source animal id): 250 | Enterococcus spp.; isolate (source animal id): 289 | Enterococcus spp.; isolate (source animal id): 290 | Enterococcus spp.; isolate (source animal id): 296 | Enterococcus spp.; [15]
8 µg/mL: Mannheimia haemolytica; isolate (source animal id): 233 | Mannheimia haemolytica; isolate (source animal id): 318 | Enterococcus spp.; isolate (source animal id): 2 | Enterococcus spp.; isolate (source animal id): 42 | Enterococcus spp.; isolate (source animal id): 88 | Enterococcus spp.; isolate (source animal id): 91 | Enterococcus spp.; isolate (source animal id): 111 | Enterococcus spp.; [3] | Enterococcus spp.; [5] | Enterococcus spp.; [9] | Enterococcus spp.; isolate (source animal id): 236 | Enterococcus spp.; isolate (source animal id): 239 | Enterococcus spp.; [12] | Enterococcus spp.; [13] | Enterococcus spp.; isolate (source animal id): 301 | Enterococcus spp.; [14] | Enterococcus spp.; isolate (source animal id): 331
≤ 1 µg/mL: Mannheimia haemolytica; isolate (source animal id): 8 | Mannheimia haemolytica; isolate (source animal id): 13 | Mannheimia haemolytica; isolate (source animal id): 18 | Mannheimia haemolytica; isolate (source animal id): 21 | Mannheimia haemolytica; isolate (source animal id): 30 | Mannheimia haemolytica; isolate (source animal id): 32 | Mannheimia haemolytica; isolate (source animal id): 34 | Mannheimia haemolytica; isolate (source animal id): 40 | Mannheimia haemolytica; isolate (source animal id): 41 | Mannheimia haemolytica; isolate (source animal id): 43 | Mannheimia haemolytica; isolate (source animal id): 51 | Mannheimia haemolytica; isolate (source animal id): 52 | Mannheimia haemolytica; isolate (source animal id): 53 | Mannheimia haemolytica; isolate (source animal id): 55 | Mannheimia haemolytica; isolate (source animal id): 56 | Mannheimia haemolytica; isolate (source animal id): 154 | Mannheimia haemolytica; [4] | Mannheimia haemolytica; isolate (source animal id): 180 | Mannheimia haemolytica; [5] | Mannheimia haemolytica; isolate (source animal id): 186 | Mannheimia haemolytica; [6] | Mannheimia haemolytica; isolate (source animal id): 188 | Mannheimia haemolytica; [7] | Mannheimia haemolytica; isolate (source animal id): 192 | Mannheimia haemolytica; isolate (source animal id): 288 | Mannheimia haemolytica; isolate (source animal id): 291 | Mannheimia haemolytica; isolate (source animal id): 300 | Mannheimia haemolytica; isolate (source animal id): 306 | Mannheimia haemolytica; isolate (source animal id): 308 | Mannheimia haemolytica; isolate (source animal id): 309 | Mannheimia haemolytica; [14]
> 16 µg/mL: Mannheimia haemolytica; isolate (source animal id): 57 | Mannheimia haemolytica; isolate (source animal id): 112 | Mannheimia haemolytica; isolate (source animal id): 113 | Mannheimia haemolytica; [2] | Mannheimia haemolytica; isolate (source animal id): 126 | Mannheimia haemolytica; [3] | Mannheimia haemolytica; isolate (source animal id): 135 | Mannheimia haemolytica; isolate (source animal id): 138 | Mannheimia haemolytica; isolate (source animal id): 141 | Mannheimia haemolytica; isolate (source animal id): 142 | Mannheimia haemolytica; isolate (source animal id): 159 | Mannheimia haemolytica; isolate (source animal id): 162 | Mannheimia haemolytica; isolate (source animal id): 259 | Mannheimia haemolytica; isolate (source animal id): 260 | Mannheimia haemolytica; [12] | Mannheimia haemolytica; isolate (source animal id): 287 | Mannheimia haemolytica; [13] | Mannheimia haemolytica; isolate (source animal id): 299 | Mannheimia haemolytica; isolate (source animal id): 302 | Mannheimia haemolytica; isolate (source animal id): 304 | Mannheimia haemolytica; isolate (source animal id): 313 | Mannheimia haemolytica; isolate (source animal id): 321 | Mannheimia haemolytica; isolate (source animal id): 323 | Mannheimia haemolytica; isolate (source animal id): 326 | Mannheimia haemolytica; isolate (source animal id): 328 | Mannheimia haemolytica; isolate (source animal id): 329 | Mannheimia haemolytica; [15] | Enterococcus spp.; isolate (source animal id): 35 | Enterococcus spp.; [1] | Enterococcus spp.; isolate (source animal id): 158 | Enterococcus spp.; isolate (source animal id): 168 | Enterococcus spp.; isolate (source animal id): 175 | Enterococcus spp.; isolate (source animal id): 177 | Enterococcus spp.; isolate (source animal id): 228 | Enterococcus spp.; isolate (source animal id): 230 | Enterococcus spp.; isolate (source animal id): 235 | Enterococcus spp.; [10] | Enterococcus spp.; isolate (source animal id): 247 | Enterococcus spp.; [11] | Enterococcus spp.; isolate (source animal id): 268 | Enterococcus spp.; isolate (source animal id): 285 | Enterococcus spp.; isolate (source animal id): 310 | Enterococcus spp.; isolate (source animal id): 341
2 µg/mL: Mannheimia haemolytica; [1] | Mannheimia haemolytica; isolate (source animal id): 149 | Mannheimia haemolytica; isolate (source animal id): 151 | Mannheimia haemolytica; isolate (source animal id): 170 | Mannheimia haemolytica; isolate (source animal id): 172 | Mannheimia haemolytica; isolate (source animal id): 173 | Mannheimia haemolytica; isolate (source animal id): 179 | Mannheimia haemolytica; isolate (source animal id): 191 | Mannheimia haemolytica; isolate (source animal id): 201 | Mannheimia haemolytica; isolate (source animal id): 209 | Mannheimia haemolytica; [8] | Mannheimia haemolytica; isolate (source animal id): 220 | Mannheimia haemolytica; isolate (source animal id): 221 | Mannheimia haemolytica; [9]

Source: the supplement of paper PMC8612539
